From patent US10822664B2, “Sequence-specific detection and phenotype determination” (priority 2015, dated 2020)

What was measured:
[1] = tested on: E. coli 1289018, 1289023, 1289027, and 1289011; assay: CRISPR/Cas9 cell-reporter AST assay; format: cell-based
Text: Enterobacteriaceae cell reporters as described in PCT/US2014/026536, Example 1 are designed with reporter plasmids that also carry single-guide[14] CRISPR/Cas9 systems with CRISPR loci that carry sequences targeting blaNDM-1 and blaSHV-18 genes (Table 1, SEQ ID NOs 11 & 13) a carbapenem resistance and extended β-lactam resistance gene, respectively. The reporter plasmid pGWP10001 is modified to include the cas9 gene, tracrRNA under the control of the PL(tetO-1) promoter, and a CRISPR cloning site, and CRISPR loci are designed to target the blaNDM-1 (SEQ ID NO 4) and blaSHV-18 (SEQ ID NO 5) genes and each are cloned into pGWP10001/CRISPR/Cas9 vectors to generate reporter plasmids that simultaneously target the blaNDM-1 and blaSHV-18 genes.
The vectors are used to generate non-replicative transduction particles carrying each plasmid and these are employed in a reporter system for determining the mechanism responsible to β-lactam non-susceptibility. Briefly, cultures of E. coli 1289018 (blaNDM-1, blaSHV-18-negative), 1289023 (blaNDM-1-positive), 1289027 (blaSHV-positive), and 1289011 (blaVIM-positive) are prepared and used to inoculate wells of a microwell plate containing 50 μL of LB with 50 μL of inoculum such that each well receives 10^4 CFU of each strain of bacteria. To these wells 100 μL of the following is added: a set of wells contain 5 μg/mL of meropenem and blaNDM-1-targetting NRTP, another set of wells contain 5 μg/mL of meropenem and blaSHV-18-NRTP, another set of wells contain 5 μg/mL of ceftazidime and blaNDM-1-targetting NRTP, and another set of wells contain 5 μg/mL of ceftazidime and blaSHV-18-NRTP. The samples are then incubated at 30° C. for 2 hours and then the samples are assayed for luminescence as described in Example 1.

[2] = tested on: E. coli 1289011, 1289012, 1289014, and 1289018; assay: AST meropenem/peptide-PNA disk diffusion testing; format: cell-based; conditions: for meropenem disk diffusion result: 10 μg meropenem disk, FIG. 4; for zone diameter compared to that of meropenem alone: 10 μg meropenem disk including peptide-PNA
Experimental: Disk diffusion testing is conducted following CLSI-M02 (12) and interpreted following M100-S22 (13). Briefly, for testing each bacterium for susceptibility to meropenem, a Mueller-Hinton agar (MHA) plates are inoculated using a sterile cotton swab dipped into a suspension of a culture of bacteria at a 0.5 McFarland standard such that the entire surface of the MHA is covered. A 10 μg meropenem disk is applied to the surface of the inoculated plate and the plate is incubated at 35° C. in ambient air for 16 to 18 hours. The strain of bacteria is determined to be susceptible to meropenem if the diameter of the zone of inhibition around the meropenem disk is ≥23 mm and resistant to meropenem if the zone diameter is ≤19 mm.
The second row of FIG. 4 depicts the typical meropenem disk diffusion results for the E. coli strains where 1289011, 1289012, and 1289014 are CRE and 1289018 is CSE.
To determine the specific mechanism linked to the meropenem-resistant phenotype, disk diffusion testing is conducted with 10 μg meropenem disks including blaKPC-3- and blaNDM-1-peptide-PNA. If the peptide-PNA inhibits the specific carbapenemase linked to the meropenem resistance in the E. coli strain, then the zone diameter observed will be […] when compared to the zone diameter of the strain when exposed to a disk containing only meropenem.

[3] = tested on: E. coli 1289011, 1289012, 1289014, and 1289018; assay: Peptide-PNA cell-reporter AST assay (Enterobacteriaceae reporter); format: cell-based
Experimental: In this example, the AST technique described in Example 2 is extended to AST testing based on cell-reporter assays. An Enterobacteriaceae cell reporter as described in PCT/US2014/026536, Example 1 is employed and the assay is run as follows. Briefly, cultures of E. coli 1289011, 1289012, 1289014, and 1289018 are prepared and used to inoculate wells of a microwell plate containing 50 μL of LB with 50 μL of inoculum such that each well receives 10^4 CFU of each strain of bacteria. A set of wells contain no additional additives, another set of wells contain 5 μg/mL of meropenem, another set of wells contain 5 μg/mL of meropenem and blaKPC-3-peptide-PNA, another set of wells contain 5 μg/mL of meropenem and blaNDM-1-peptide-PNA, and another two set of wells contain only blaKPC-3 or blaNDM-1 peptide-PNA, respectively. All wells also receive 100 μL of the Enterobacteriaceae reporter. The samples are then incubated at 30° C. for 2 hours and then the samples are assayed for luminescence as described in Example 1.

Enterococcus spp. = assay: VRE cell-reporter assay (Enterococcus reporter); format: cell-based, E. faecalis, E. faecium, E. casseliflavus; conditions: 5 μg/mL vancomycin, FIG. 7 column 2
Text: In this example an Enterococcus cell reporter is employed in combination with vancomycin and antisense molecules targeting vanC-2 gene expression. The assay allows for the detection of VRE and discrimination from vancomycin-sensitive Enterococcus (VSE) and Enterococcus expressing the vanC-2 gene and not the vanA or vanB genes. The Enterococcus reporter is designed to cause Enterococcus spp. to produce a detectable signal. A Peptide-PNA is designed to target vanC-2 transcripts.
Briefly, cultures of VSE E. faecalis 1259012, vanA-positive VRE E. faecalis 1259016, VSE E. faecium 1269011, vanB-positive VRE E. faecium 1269014, and vanC-2-positive vancomycin non-susceptible E. casseliflavus 1279015 are prepared and used to inoculate wells of a microwell plate containing 50 μL of LB with 50 μL of inoculum such that each well receives 10^4 CFU of each strain of bacteria. A set of wells contains no additional additives, another set of wells contains 5 μg/mL of vancomycin, and another set of wells contains 5 μg/mL of vancomycin and vanC-2-peptide-PNA. All wells also receive 100 μL of the Enterococcus reporter. The samples are then incubated at 37° C. for 2 hours and then the samples are assayed for luminescence as described in Example 1.

E. coli [4] = assay: Enterobacteriaceae luminescent-reporter NRTP assay with murA PNA, E. coli; format: cell-based; conditions: murA PNA 4.5 μM, 30° C. for 2 hours, FIG. 3
Experimental: (§1) Isolates of E. coli and K. pneumoniae were grown overnight in LB at 37° C. and sub-cultured the next day at a 1:100 dilution into fresh LB and grown to an OD600 of 0.2. Inoculums of each strain of approximately 10^4 CFU of each species of bacteria were added to separate wells of a microplate each containing 50 μL of LB or LB with murA PNA at a final concentration of 4.5 μM. All wells subsequently received 100 uL of an Enterobacteriaceae luminescent-reporter non-replicative transduction particle as described in PCT/US2014/026536, Example 1 and the samples were incubated at 30° C. for 2 hours. After the incubation period, the plates were assayed for luminescence using a Molecular Devices SpectraMax L microplate luminometer in which a solution of tridecanal was injected into each well as luminescence readings were taken.

K. pneumoniae [5] = assay: Enterobacteriaceae luminescent-reporter NRTP assay with murA PNA, K. pneumoniae; format: cell-based; conditions: murA PNA 4.5 μM, 30° C. for 2 hours, FIG. 3
Experimental: as §1

E. coli [6] = assay: Effect of murA PNA on growth (OD600) of E. coli; format: cell-based; conditions: murA PNA 4.5 μM in LB; OD600 over 8 hours; FIG. 1
Experimental: (§2) Isolates of E. coli and K. pneumoniae were grown overnight in LB at 37° C. and sub-cultured the next day at a 1:100 dilution into fresh LB and grown to an optical density at 600 nm (OD600) of 0.2. Inoculums of each strain of approximately 10^4 CFU of each species of bacteria were added to separate wells of a microplate each containing 50 μL of LB or LB with murA PNA at a final concentration of 4.5 μM. OD600 readings were measured over a period of 8 hours to assess growth of PNA-treated and PNA-untreated cells.

K. pneumoniae [7] = assay: Effect of murA PNA on growth (OD600) of K. pneumoniae; format: cell-based; conditions: murA PNA 4.5 μM in LB; OD600 over 8 hours; FIG. 2
Experimental: as §2

[8] = E. coli 1289018, 5 μg/mL β-lactam, regardless of which NRTP, FIG. 6 row 1
[9] = E. coli 1289011, 5 μg/mL meropenem and peptide-PNA
[10] = E. coli 1289012, 5 μg/mL meropenem and peptide-PNA
[11] = E. coli 1289014, 5 μg/mL meropenem and peptide-PNA

Compound	inhibition in reporter assay [1, 8]	zone diameter compared to that of meropenem alone ([2]; E. coli 1289011)	zone diameter compared to that of meropenem alone ([2]; E. coli 1289012)	zone diameter compared to that of meropenem alone ([2]; E. coli 1289014)	reporter assay signal [3, 9]	reporter assay signal [3, 10]	reporter assay signal [3, 11]	further results
CC(C)(O/N=C(\C(=O)N[C@@H]1C(=O)N2C(C(=O)[O-])=C(C[n+]3ccccc3)CS[C@H]12)c1csc(N)n1)C(=O)O [ceftazidime]	inhibited	–	–	–	–	–	–	–
C[C@@H](O)[C@H]1C(=O)N2C(C(=O)O)=C(S[C@@H]3CN[C@H](C(=O)N(C)C)C3)[C@H](C)[C@H]12 [meropenem, reference compound]	inhibited	–	–	–	–	–	–	meropenem disk diffusion result ([2]; E. coli 1289011): CRE; meropenem disk diffusion result ([2]; E. coli 1289012): CRE; meropenem disk diffusion result ([2]; E. coli 1289014): CRE; meropenem disk diffusion result ([2]; E. coli 1289018): CSE; inhibition in reporter assay ([1]; E. coli 1289027 (blaSHV-positive), 5 μg/mL meropenem, FIG. 6 row 3): inhibited; reporter assay signal ([3]; 5 μg/mL meropenem, all E. coli strains except 1289018, FIG. 5 column 2): continue to give a positive signal
CN[C@H](CC(C)C)C(=O)N[C@H]1C(=O)N[C@@H](CC(N)=O)C(=O)N[C@H]2C(=O)N[C@H]3C(=O)N[C@H](C(=O)N[C@H](C(=O)O)c4cc(O)cc(O)c4-c4cc3ccc4O)[C@H](O)c3ccc(c(Cl)c3)Oc3cc2cc(c3O[C@@H]2O[C@H](CO)[C@@H](O)[C@H](O)[C@H]2O[C@H]2C[C@](C)(N)[C@H](O)[C@H](C)O2)Oc2ccc(cc2Cl)[C@H]1O [vancomycin]	–	–	–	–	–	–	–	reporter assay signal (Enterococcus spp.; strains expressing a van gene): continue to give a positive signal; reporter assay signal (Enterococcus spp.; strains not carrying a van gene): do not
KFFKFFKFFK-eg-ccatttagtt (CCATTTAGTT; all peptide nucleic acid (PNA); further chemistry not fully specified) [murA PNA]	–	–	–	–	–	–	–	luminescence signal produced by E. coli (E. coli [4]): compromised; luminescence signal produced by K. pneumoniae (K. pneumoniae [5]): does not inhibit signal production; growth of E. coli (E. coli [6]): compromised; growth of K. pneumoniae (K. pneumoniae [7]): not compromised
blaKPC-3 peptide-PNA: PNA (SEQ ID NO 2) targeting the TIR of blaKPC-3, conjugated to the peptide KFFKFFKFFK (TCAACGATAT; all peptide nucleic acid (PNA); further chemistry not fully specified)	–	not reduced	reduced	not reduced	continues to produce a positive signal	no longer produces a positive signal	continues to produce a positive signal	–
blaNDM-1 peptide-PNA: PNA (SEQ ID NO 3) targeting the TIR of blaNDM-1, conjugated to the peptide KFFKFFKFFK (TCAAGTTTTCC; all peptide nucleic acid (PNA); further chemistry not fully specified)	–	not reduced	not reduced	reduced	continues to produce a positive signal	continues to produce a positive signal	no longer produces a positive signal	–
